Reference: PubChem BioAssay (NCI)
Values joined by “and” are separate entries in the source; they are usually repeats but may differ in a detail not shown here. Equal values may be shown once.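 Protocol summary: plate cells (96-well), add compound at 5 concentrations, incubate 48 h, interpolate endpoints linearly. GI50 = concentration required for 50% inhibition of growth. TGI marks complete inhibition of growth.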

What was measured:
Assay in all cases: NCI-60 cell line screen, 48 h
[1] = system: SK-OV-3 ovarian
[2] = system: SN12C renal
[3] = system: HCT-15 colon
[4] = system: TK-10 renal
[5] = system: MDA-MB-435
[6] = system: NCI-H23 lung
[7] = system: HL-60(TB) leukemia
[8] = system: MALME-3M melanoma
[9] = system: HT29 colon
[10] = system: RPMI-8226 leukemia

Compound	TGI [1]	TGI [2]	GI50 [3]	TGI [3]	GI50 [4] [µM]	TGI [4]	TGI [5] [µM]	GI50 [6]	GI50 [7]	TGI [7]	GI50 [8] [µM]	TGI [8]	GI50 [9]	TGI [10] [µM]	TGI [6]	TGI [9]	GI50 [1] [µM]	GI50 [5] [µM]	GI50 [10] [µM]	GI50 [2] [µM]
COC1C(C)OC(OC2CC(C)(O)Cc3cc4c(c(O)c32)C(=O)c2c(O)cc3c(c2C4=O)OC2OC3(C)C(O)C(N(C)C)C2O)C(OC)C1(C)OC (stereo unspecified)	1.52 µM and 10.7 µM	6.12 µM and 6.56 µM	0.641 µM and 0.494 µM	9.85 µM and 15.2 µM	0.109	0.781 µM	0.00306	0.0395 µM and 0.0216 µM	0.0711 µM and 0.105 µM	0.588 µM and 0.535 µM	0.0178	0.383 µM and 0.0944 µM	0.00453 µM and 0.0379 µM							
NC(CSC1(c2ccc(Cl)cc2)c2ccccc2-c2ccccc21)C(=O)O (stereo unspecified)	> 100 µM	41.4 µM		47.3 µM		48.3 µM	35.3			> 100 µM		38.5 µM		> 100	41.1 µM	> 100 µM				
CC(=O)Nc1ccc(Cc2ccc3[nH]c(=O)cc(C)c3c2)cc1	> 100 µM	> 100 µM		> 100 µM		> 100 µM	> 100			> 100 µM		> 100 µM		> 100	> 100 µM	> 100 µM				
C=C(C)C1CCC2(C(=O)O)CCC3(C)C(CCC4C5(C)CCC(O)C(C)(C)C5CCC43C)C12 (stereo unspecified)	34.2 µM	26.1 µM		23.5 µM		28.9 µM	48.4			10.5 µM		27.9 µM		63.5	12.7 µM	23.9 µM				
O=C(NC(Cc1ccccc1)C(=O)CCl)OCc1ccccc1 (stereo unspecified)	29.7 µM and 27.6 µM	17.7 µM and 20.3 µM	2.32 µM	8.56 µM and 17.8 µM	2.58	9.43 µM and 28.4 µM	14.3	10.5 µM	14.3 µM	43.1 µM and 13.4 µM	1.93	6.7 µM and 23.8 µM	3.53 µM		30.7 µM and 26.1 µM	16.5 µM and 37.3 µM	11.9	3.59	2.44	
CNC(=O)c1cc(Oc2ccc3nc(NC(=O)Nc4cc(C(F)(F)F)cc(C(F)(F)F)c4)sc3c2)ccn1	3.18 µM	3.79 µM	1.5 µM	3.31 µM	1.67	3.35 µM	2.7	0.573 µM	1.6 µM	4.17 µM	0.908	2.49 µM	1.21 µM	3.81	2.38 µM	2.73 µM	1.43	1.04	1.02	1.64
COc1ccc2c(c1)CC1N(C)CCC13CCCCC23 (stereo unspecified)	> 100 µM	> 100 µM		> 100 µM		> 100 µM	> 100			> 100 µM		> 100 µM		> 100	> 100 µM	> 100 µM				
Cc1ccnc(NC(c2ccccc2)c2ccc3cccnc3c2O)c1 (stereo unspecified)	> 100 µM	> 100 µM	3.35 µM	> 100 µM			30.5	5.12 µM	1.7 µM	5.4 µM	2.89	34.9 µM		> 100	> 100 µM		4.36	4.18	8.19	5.27
COc1c(OC)c(OC)c(-c2cc(=O)c3c(OC)c(OC)c(OC)c(OC)c3o2)c(OC)c1OC	> 100 µM	> 100 µM		> 100 µM		85.3 µM	> 100			> 100 µM		> 100 µM		> 100	95.7 µM	86.4 µM				
C=C(C)[C@@H]1CC[C@]2(C(=O)N3CCN(C)CC3)CC[C@]3(C)[C@H](CC[C@@H]4[C@@]5(C)CC[C@H](O)C(C)(C)[C@@H]5CC[C@]43C)[C@@H]12	3.35 µM	3.46 µM	1.69 µM	3.86 µM	1.79	3.38 µM	3.5	1.92 µM			1.92	3.83 µM	1.41 µM		3.82 µM	3.09 µM	1.84	1.8		1.72
O=C(c1ccccc1)c1c2n(c3c1cc(O)c1ccccc13)CCN2	25.2 µM	4.21 µM	6.5 µM	19.1 µM	23.1	75.2 µM	3.73	4.17 µM	2.17 µM	4.47 µM	1.97	4.19 µM	3.67 µM	6.47	12 µM	15.5 µM	11.1	1.99	2.42	2
COC1/C=C/OC2(C)Oc3c(C)c(O)c4c(O)c(c(C=NOC(c5ccccc5)c5ccccc5)c(O)c4c3C2=O)NC(=O)/C(C)=C/C=C/C(C)C(O)C(C)C(O)C(C)C(OC(C)=O)C1C (stereo unspecified)	6.67 µM	3.53 µM	1.17 µM	2.96 µM	1.14	3.59 µM	3.01	1.48 µM	1.84 µM	3.83 µM	1.19	3.38 µM	1.01 µM	3.19	5.43 µM	2.13 µM	1.88	1.18	1.16	1.31
[Au+].c1c[n-]cn1.c1ccc([PH+](c2ccccc2)c2ccccc2)cc1	30.4 µM	27.4 µM	3.42 µM	15.8 µM	2.66	6.46 µM	23.1	5.85 µM	1.66 µM	4.81 µM	1.96	4.25 µM	8 µM	> 90.8	25.1 µM	24.7 µM	16.8	5.17	8.93	10.3
COC(=O)[C@H](C)[C@@H]1CC[C@](C)(CCC2=C(C)CCCC2(C)C)OO1	> 25 µM	> 25 µM		> 25 µM		> 25 µM	> 25			> 25 µM		> 25 µM		> 25	> 25 µM	> 25 µM				
COc1cc2oc(-c3ccc(O)cc3)cc(=O)c2c(OC)c1O	> 100 µM	> 100 µM		> 100 µM		> 100 µM	> 100			> 100 µM		> 100 µM		> 100	> 100 µM	> 100 µM				
CC/C(=C(/CC)c1ccc(O)cc1)c1ccc(O)cc1	13 µM	28.6 µM	4.79 µM	20 µM	14.8	37.6 µM	5.14	5.76 µM	4.07 µM	> 100 µM	5.54	25.1 µM	5.16 µM		23 µM	17.9 µM	3.63	1.87		5.9
